In article PMC5937091, “Efficacy of Alpha Glucosidase Inhibitor from Marine Actinobacterium in the Control of Postprandial Hyperglycaemia in Streptozotocin (STZ) Induced Diabetic Male Albino Wister Rats” (Iranian Journal of Pharmaceutical Research : IJPR, 2018):
≈ marks a conversion by molar mass, not a printed value.

Biological target: T1, mammalian α-glucosidase (rat α-glucosidase; rat-intestinal acetone powder)
T1 construct: gene Si; crude soluble supernatant of sonicated rat-intestinal acetone powder (Sigma-Aldrich); native, not purified
Experiment: colorimetric inhibition assay, absorbance at […] nm
Assay type: biochemical
Settings: substrate p-nitrophenyl α-D-glucopyranoside, phosphate buffer pH 6.8, 37 °C (as in screening protocol); mode printed both as competitive and as non-competitive

For `CN1C(=O)C(CCl)N(C(=O)OC(C)(C)C)C1C(C)(C)C` (stereo not shown) [2-t-butyl-5-chloromethyl-3-methyl-4-oxoimidazolidine-1-carboxylic acid, t-butyl ester], the IC50 was 32.08 µg/mL (≈ 105 µM).
